From patent US9585885B2, “Substituted pyrido[2,3-g]quinazolines as dopamine D2 receptor agonists” (KISSEI PHARMACEUTICAL CO., LTD., priority 2012, dated 2017) come the findings set out here.

The structures appear in SMILES notation. Like-named read-outs stand apart in the source and are kept apart here.

Assay [1] concerns the target T1, human dopamine D2 receptor (Homo sapiens, UniProt P14416).
T1 construct: expressed in transfected cells
Kind of assay: Stimulating activities of human dopamine D2 receptor, [35S]GTPγS binding to hD2R#7 (HEK293) membrane homogenates. The class given is biochemical. The procedure: Identification Test of Stimulating Activities on Human Dopamine D2 Receptor
The cells, which were grown to confluence in 150 mm dishes (IWAKI), were harvested with isotonic buffer (50 mM Tris (Sigma), 2 mM ethylenediamine-tetraacetic acid (Invitrogen), and 125 mM sodium chloride (Wako Pure Chemicals), pH 7.4) and centrifuged at 1880×g and 4° C. for 10 minutes, and the cell pellets were then suspended in isotonic buffer. After being subjected to one cycle of freezing and thawing, the cells were centrifuged at 1880×g and 4° C. for 10 minutes, and the cell pellets were suspended in isotonic buffer. The cells were centrifuged at 1880×g and 4° C. for 10 minutes, and the cell pellets were suspended in isotonic buffer and homogenate buffer (10 mM sodium bicarbonate (Nacalai) and 5 mM ethylenediamine-tetraacetic acid, pH 7.5). The volume ratio of isotonic-to-homogenate buffer was 2. The cells were sonicated and centrifuged at 1880×g and 4° C. for 10 minutes, and the supernatants were ultracentrifuged at 80000×g and 4° C. for 30 minutes. The final cell pellets were suspended in homogenate buffer containing protease inhibitor cocktail (Nacalai) and stored at −80° C. until use. The protein concentration was determined using BCA Protein Assay Kit (Pierce) in accordance with the manufacturer's instructions.
The stimulating activities of human dopamine D2 receptor was determined by measuring the binding potential of [^35S]-guanosine 5′-[gamma-thio]triphosphate ([^35S]GTPγS, PerkinElmer) according to the method described by Newman-Tancredi A. et al. (Naunyn-Schmiedeberg's Arch Pharmacol, 1999, vol. 359, pp. 447-453) with a minor modification. Test compounds and dopamine hydrochloride (Fluka) as positive control were dissolved in dimethyl sulfoxide (CARLBIOCHEM), resulting in 30 mM. The both compounds were diluted with assay buffer (50 mM Tris, 100 mM sodium chloride, 5 mM magnesium chloride (Nacalai), 1 mM ethylenediamine-tetraacetic acid, 1 mM dithiothreitol (Wako Pure Chemicals), 10 μM guanosine diphosphate (Wako Pure Chemicals) and 0.5% bovine serum albumin (Sigma), pH 7.4) to a final concentration of 100 pM (only test compounds), 1 nM, 10 nM, 100 nM, 1 μM, 10 μM and 100 μM (only dopamine hydrochloride). The above membrane homogenates and [^35S]GTPγS were diluted with assay buffer to a final concentration of 0.06 mg/mL and 0.6 nM, respectively. The serial diluted compounds (50 μL), the diluted membrane homogenates (50 μL) and the diluted [^35S]GTPγS (50 μL) were mixed on multi-screen 96-well plate (Millipore) and shaken lightly at room temperature for 60 minutes. The reaction was terminated by vacuum filtration with three times washes of ice-cold wash buffer (50 mM Tris, 100 mM sodium chloride, 5 mM magnesium chloride, and 1 mM ethylenediamine-tetraacetic acid, pH 7.4). After drying the bottoms of the plate at 60° C., MicroScinti-40 (PerkinElmer) (30 μL) was added in the plate. The tops of the plate were sealed by TopSeal-A (PerkinElmer), and the radioactivity was determined in a TopCount NXT (registered mark)(PerkinElmer) after shaking lightly for 5-10 minutes. The data was analyzed by nonlinear regression and sigmoidal dose-response curve fitting using GraphPad PRISM 4.0 (GraphPad Software), and values of EC50 (concentration of the compound producing half the maximal effect of the compound) were calculated. The data was presented as mean value (n=2).
A general note: GTPγS resists hydrolysis and so accumulates on activated G proteins.

Assay [2] addresses T2, human serotonin 5-HT2B receptor (Homo sapiens, UniProt P41595).
T2 construct: expressed in transfected cells; host or cells: HEK293 (transient transfection)
Kind of assay: Stimulating activities of human serotonin 5-HT2B receptor, intracellular calcium in forced expression HEK293 cells. It is filed as cell-based. The note with it: intracellular calcium concentration, mean value (n=2). The procedure:
Identification Test of Stimulating Activities on Human Serotonin 5-HT2B Receptor
Mostly confluent HEK293 cells were washed with PBS, followed by exfoliation with 0.05% trypsin-EDTA and the cells were suspended in D-MEM liquid medium (phenol red-free, low glucose, pyruvic acid were contained) containing fetal bovine serum (final concentration: 10%) and GlutaMax (registered mark) I (final concentration: 2 mM). The suspension was scattered at 5×10^4 cells/100 μL/well on poly-D-lysine-coated 96-well microplate (BD BioCoat (registered mark)). The scattered cells were cultured in 5% CO2 incubator at 37° C. Human serotonin 5-HT2B receptor expression plasmid was transfected in that cells according to the procedure seeing below.
Human serotonin 5-HT2B receptor expression plasmid and Lipofectamine (registered mark) 2000 (Invitrogen) were diluted to 0.008 g/L and 0.016 g/L each other with OPTI-MEM (registered mark) I Reduced-Serum Medium and incubated at room temperature. After incubation, the human serotonin 5-HT2B receptor expression plasmid-diluted liquid and Lipofectamine (registered mark) 2000-diluted liquid were mixed at an equal volume and incubated at room temperature to form a complex. The complex was dispensed at 50 μL/well on the cells prepared above. The cells were incubated in 5% CO2 incubator at 37° C. for 2 days. After incubation, the cells were used as human serotonin 5-HT2B receptor forced expression cells for measurement of intracellular calcium concentration.
The stimulating activities of human serotonin 5-HT2B receptor was determined by measuring of intracellular calcium concentration. The 30 mM dimethyl sulfoxide (DMSO) solution contained test compounds or serotonin hydrochloride (Sigma) as positive control, was diluted with assay buffer ((HBSS), 20 mM HEPES, 1.3 mM calcium chloride, 0.5 mM magnesium chloride and 0.4 mM magnesium sulfate were contained, pH7.4) to appropriate concentration.
The forced expression cells were washed with assay buffer, and 100 μL/well of fluorescent calcium indicator (Fluo-4 NW Calcium Assay Kit) was added and incubated in 5% CO2 incubator at 37° C. After incubation, 50 μL/well of each test compound was added, and the concentration of intracellular calcium was measured as fluorescent signal with FlexStation (registered mark) II (Molecular Devices). The data was analyzed by nonlinear regression and sigmoidal dose-response curve fitting using GraphPad PRISM 4.0, and values of EC50 (concentration of the compound producing half the maximal effect of the compound) were calculated. The data was presented as mean value (n=2).
On the technique in general: A change in cytosolic calcium serves as a functional read-out for many receptors and channels.

Assay [3] deals with unilateral 6-hydroxydopamine-lesioned hemi-Parkisonian rats. As to the kind of experiment: Contralateral rotational behavior in unilateral 6-hydroxydopamine-lesioned hemi-parkinsonian rats. The class given is in vivo, rat. The note with it: orally 10 mg/kg, mean value; for Total number of rotations: contralateral rotations up to 24 hours after administration; for Duration: measured up to 24 hours after administration, duration of rotational response. The procedure: 6-OHDA was dissolved at 2 mg/mL in a physiolosical saline solution containing 0.2% L-ascorbic acid. Desipramine was dissolved at 10 mg/mL in a physiolosical saline solution in a hot-water bath. Apomorphine was dissolved at 0.1 mg/mL in a physiolosical saline solution. Ropinirole was dissolved in distilled water. Test compounds were dissolved in a solution containing 2% DMA, 100 or 200 mol % hydrochloric acid, and 98% of a 0.5% methyl cellulose solution. […] (Eur J Pharmacol, 2000, vol. 408, P. 249-255) with a minor modification. Male Sprague-Dawley rats (6-weeks-old, Charles River Laboratories Japan Inc.) were anaesthetized with intraperitoneal somnopentyl (45 mg/kg) injection and placed in a stereotaxic frame (Narishige). In order to prevent 6-OHDA-induced damage of noradrenergic neurons, desipramine (25 mg/kg) was intraperitoneally injected 30 minutes before the 6-OHDA injection. After the bregma identification via a middle calvarial incision, the skull was drilled using a dental drill at the site of 6-OHDA injection. The lesion was made by injecting 6-OHDA (8 μg in 4 μL at a speed of 1 μL/minute) unilaterally into the left medial forebrain bundle by using a injection cannula (30 gauge needle) connected to a microsyringe (Hamilton) (the lesion coordinates; A/P −2.5 mm, L/M −1.8 mm, and V/D −8.0 mm, from the bregma point and surface of the skull). The cannula was carefully removed from the animal after keeping placed on the lesion site for 5 minutes. The skull was filled its hole with dental cement, disinfected, and the scalp incision was surgically sutured. Animals recovered from anesthesia were housed as usual until the day of the experiment. Three weeks after the lesion, rats were tested on the basis of their contralateral rotational behavior (single rotation was defined as a 360° turn) in response to 0.1 mg/kg apomorphine given subcutaneously. For behavioral observation, rats were placed in plastic cylinders of a diameter of 30 cm, and its contralateral rotational behaviors were videotaped and quantified by rat-rotation auto counting system R-RACS (Kissei Wellcom). On the experimental day, animals were fasted overnight, and test compounds were orally administrated at doses of 10 mg/kg. The drug potency was measured until up to 24 hours after administration as the number of contralateral rotation. […] Total number of rotations and the duration of the response in experimental period were presented as mean value. As comparative example, ropinirole as non-ergot dopamine D2 receptor agonist, was examined in a similar fashion.

Setting [4] is: [35S]GTPγS binding, membrane homogenates, mean value (n=2), read-out: EC50.

T1 sequence (P14416 whole entry): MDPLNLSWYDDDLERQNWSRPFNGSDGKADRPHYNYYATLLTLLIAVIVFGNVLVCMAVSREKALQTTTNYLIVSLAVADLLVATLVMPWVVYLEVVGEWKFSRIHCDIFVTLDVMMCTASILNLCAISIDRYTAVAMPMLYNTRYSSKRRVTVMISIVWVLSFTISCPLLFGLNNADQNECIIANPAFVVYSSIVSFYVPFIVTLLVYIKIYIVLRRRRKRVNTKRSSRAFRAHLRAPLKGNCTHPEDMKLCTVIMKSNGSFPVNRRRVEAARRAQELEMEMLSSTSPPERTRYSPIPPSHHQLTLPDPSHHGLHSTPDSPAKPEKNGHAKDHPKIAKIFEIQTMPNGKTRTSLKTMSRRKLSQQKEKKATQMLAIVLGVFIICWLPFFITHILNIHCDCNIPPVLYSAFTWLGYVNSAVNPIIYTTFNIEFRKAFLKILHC
T2 sequence (P41595 whole entry): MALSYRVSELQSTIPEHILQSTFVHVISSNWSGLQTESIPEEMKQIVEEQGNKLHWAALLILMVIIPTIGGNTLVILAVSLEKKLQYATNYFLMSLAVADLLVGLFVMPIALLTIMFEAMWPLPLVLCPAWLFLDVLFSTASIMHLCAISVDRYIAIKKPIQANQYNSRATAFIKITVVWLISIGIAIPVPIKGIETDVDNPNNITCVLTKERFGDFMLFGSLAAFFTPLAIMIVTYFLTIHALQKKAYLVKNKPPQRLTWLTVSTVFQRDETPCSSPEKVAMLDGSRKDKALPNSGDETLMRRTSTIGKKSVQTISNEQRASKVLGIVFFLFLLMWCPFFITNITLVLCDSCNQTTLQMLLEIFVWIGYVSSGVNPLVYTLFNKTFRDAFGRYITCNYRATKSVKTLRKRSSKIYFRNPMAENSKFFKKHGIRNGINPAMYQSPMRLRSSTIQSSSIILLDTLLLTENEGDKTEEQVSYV

As usually defined, the EC50 is the midpoint of the concentration-response curve. Turning to `CCCN1C[C@@H](NC(=O)N(C)CCc2ccccc2)C[C@@H]2Cc3nc(N)ncc3C[C@H]21` (relative stereo) [Compound 1-11], the figures for the EC50 in assay [1] (setting [4]) and in assay [2] were 19 nM and greater than 10 µM, respectively.

As for `CCCN1C[C@@H](NC(=O)N(C)CCOC)C[C@@H]2Cc3nc(N)ncc3C[C@H]21` (relative stereo) [Compound 1-12], the EC50 is 43 nM in assay [1] (setting [4]) and greater than 10 µM in assay [2].

Regarding `CCCN1C[C@@H](NC(=O)NC)C[C@@H]2Cc3nc(N)ncc3C[C@H]21` (relative stereo) [Compound 1-13], the EC50 is 161 nM in assay [1] (setting [4]) and greater than 10 µM in assay [2].

In the case of `CCCN1C[C@@H](NC(=O)N(C)C2CC2)C[C@@H]2Cc3nc(N)ncc3C[C@H]21` (relative stereo) [Compound 1-16], the EC50 in assay [1] (setting [4]) is 93 nM; in assay [2] it was greater than 10 µM.

For `CCCN1C[C@@H](NC(=O)N(CCc2ccccc2)CCN(C)C)C[C@@H]2Cc3nc(N)ncc3C[C@H]21` (relative stereo) [Compound 1-23, 3-[(5aR*,8S*,9aR*)-2-amino-6-propyl-5,5a,6,7,8,9,9a,10-octahydropyrido[2,3-g]quinazolin-8-yl]-1-[2-(dimethylamino)ethyl]-1-(2-phenylethyl)urea], in assay [1] (setting [4]), the EC50 was 223 nM. Also, the EC50 in assay [2] is greater than 10 µM. Besides, in assay [3], the “Total number of rotations” value was determined as 9184.0 and the Duration stood at 870.0 minuets.

Turning to `CCCN1C[C@@H](NC(=O)N(CC)CCN2CCCCC2)C[C@@H]2Cc3nc(N)ncc3C[C@H]21` (relative stereo) [Compound 1-25, 3-[(5aR*,8S*,9aR*)-2-amino-6-propyl-5,5a,6,7,8,9,9a,10-octahydropyrido[2,3-g]quinazolin-8-yl]-1-ethyl-1-[2-(piperidin-1-yl)ethylurea], the EC50 in assay [1] (setting [4]) turned out to be 126 nM. Further, the EC50 in assay [2] is greater than 10 µM. Further, in assay [3], the “Total number of rotations” value amounted to 5025.0 and the Duration was 621.3 minuets.

Consider `CCCN1C[C@@H](NC(=O)N(CC)CCN2CCc3ccccc3C2)C[C@@H]2Cc3nc(N)ncc3C[C@H]21` (relative stereo) [Compound 1-33], for which the EC50 in assay [1] (setting [4]) is 93 nM; in assay [2], greater than 10 µM.

Regarding `CCCN1C[C@@H](NC(=O)N2CCCCC2)C[C@@H]2Cc3nc(N)ncc3C[C@H]21` (relative stereo) [Compound 1-34], the EC50 in assay [1] (setting [4]) was 63 nM; in assay [2] it was greater than 10 µM.

Consider `CCCN1C[C@@H](NC(=O)N(C)CCc2ccncc2)C[C@@H]2Cc3nc(N)ncc3C[C@H]21` (relative stereo) [Compound 1-36], for which the results for the EC50 in assay [1] (setting [4]) and in assay [2] were 34 nM and greater than 10 µM, respectively.

`CCCN1C[C@@H](NC(=O)N2CCc3ccccc3C2)C[C@@H]2Cc3nc(N)ncc3C[C@H]21` (relative stereo) [Compound 1-37]: the EC50 in assay [1] (setting [4]) was 10 nM; in assay [2] it was greater than 10 µM.

With `CCCN1C[C@@H](NC(=O)N(C)CCN(C)c2ccccc2)C[C@@H]2Cc3nc(N)ncc3C[C@H]21` (relative stereo) [Compound 1-39], the EC50 in assay [1] (setting [4]) was 39 nM; in assay [2] it was greater than 10 µM.

On to `CCCN1C[C@@H](NC(=O)N(CC)CCN(C)CCOC)C[C@@H]2Cc3nc(N)ncc3C[C@H]21` (relative stereo) [Compound 1-41], for which the EC50 in assay [1] (setting [4]) was 116 nM; in assay [2] it was greater than 10 µM.

Take `CCCN1C[C@@H](CO)C[C@@H]2Cc3nc(N)ncc3C[C@H]21` (relative stereo) [compound 1, [(5aR*,8S*,9aR*)-2-amino-6-propyl-5,5a,6,7,8,9,9a,10-octahydropyrido[2,3-g]quinazolin-8-yl]methanol, reference compound]: in assay [1] (setting [4]), the EC50 was 2900 nM.

As to `CCCN1C[C@@H](NC(=O)N(CCN(C)C)CC(C)C)C[C@@H]2Cc3nc(N)ncc3C[C@H]21` [Compound 1-3, 3-[(5aR,8S,9aR)-2-amino-6-propyl-5,5a,6,7,8,9,9a,10-octahydropyrido[2,3-g]quinazolin-8-yl]-1-[2-(dimethylamino)ethyl]-1-(2-methylpropyl)urea], in assay [3], the “Total number of rotations” value is on record as 3610.5 and the Duration worked out at 387.5 minuets.

Consider `CCCN1C[C@@H](NC(=O)N(C)C)C[C@@H]2Cc3nc(N)ncc3C[C@H]21` [Compound 1-5], for which it took 9 nM to reach a half-maximal effect in assay [1] (EC50).

Turning to `CCCN(CCC)CCc1cccc2c1CC(=O)N2` [Ropinirole, ropinirole, reference compound], in assay [3], the “Total number of rotations” value was 276.3 and the Duration is 61.3 minuets.
